Assay results: PubChem BioAssay AID1963845 (Molecular Pharmacology Branch, DTP, NCI, 2024)

Test system: 429239-143-T-J1-PDC complex spheroid viability
Assay: Anticancer human tumor 429239-143-T-J1-PDC patient-derived small cell lung carcinoma cell line growth inhibition [POLQ]
Conditions: for IC50: curve of first compound; for viability, T/C: stronger effect = lower value
In short: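 PDC + HUVEC + MSC complex spheroids; POLQ inhibitors ± partner drugs; top conc. at/near clinical Cmax, else 10 microM (SN-38 1 microM), half-log dilutions; 37 degrees C, 5% CO2.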

[1] = second compound 0.0316 µM, first compound 0.0316 µM
[2] = second compound 0.0316 µM, first compound 0.1 µM
[3] = second compound 0.0316 µM, first compound 0.316 µM
[4] = second compound 0.0316 µM, first compound 1 µM
[5] = second compound 0.0316 µM, first compound 3.16 µM
[6] = second compound 0.0316 µM, first compound 10 µM
[7] = second compound 0.1 µM, first compound 0.0316 µM
[8] = second compound 0.1 µM, first compound 0.1 µM
[9] = second compound 0.1 µM, first compound 0.316 µM
[10] = second compound 0.1 µM, first compound 1 µM
[11] = second compound 0.1 µM, first compound 3.16 µM
[12] = second compound 0.1 µM, first compound 10 µM
[13] = second compound 0.316 µM, first compound 0.0316 µM
[14] = second compound 0.316 µM, first compound 0.1 µM
[15] = second compound 0.316 µM, first compound 0.316 µM
[16] = second compound 0.316 µM, first compound 1 µM
[17] = second compound 0.316 µM, first compound 3.16 µM
[18] = second compound 0.316 µM, first compound 10 µM
[19] = second compound 1 µM, first compound 0.0316 µM
[20] = second compound 1 µM, first compound 0.1 µM
[21] = second compound 1 µM, first compound 0.316 µM
[22] = second compound 1 µM, first compound 1 µM
[23] = second compound 1 µM, first compound 3.16 µM
[24] = second compound 1 µM, first compound 10 µM
[25] = second compound 3.16 µM, first compound 0.0316 µM
[26] = second compound 3.16 µM, first compound 0.1 µM
[27] = second compound 3.16 µM, first compound 0.316 µM
[28] = second compound 3.16 µM, first compound 1 µM
[29] = second compound 3.16 µM, first compound 3.16 µM
[30] = second compound 3.16 µM, first compound 10 µM
[31] = second compound 10 µM, first compound 0.0316 µM
[32] = second compound 10 µM, first compound 0.1 µM
[33] = second compound 10 µM, first compound 0.316 µM
[34] = second compound 10 µM, first compound 1 µM
[35] = second compound 10 µM, first compound 3.16 µM
[36] = second compound 10 µM, first compound 10 µM
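Also: luminescence signal used as surrogate measure of viable cells; spheroids exposed to compounds for seven days before readout.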
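For viability, T/C in this document: 100% = DMSO vehicle control viability as luminescence relative to vehicle.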

C#Cc1c(F)ccc2cc(O)cc(-c3ncc4c(N5CC6CCC(C5)N6)nc(OCC56CCCN5CC(F)C6)nc4c3F)c12 (stereo not drawn) + Nc1ccc(C#CCN(C(=O)Cc2ncc(C(F)(F)F)cc2C(F)(F)F)c2ccc(F)cc2)nn1
IC50 (second compound 0.0316 µM): > 10 µM | IC50 (second compound 0.1 µM): > 10 µM | IC50 (second compound 0.316 µM): > 10 µM | IC50 (second compound 1 µM): > 10 µM | IC50 (second compound 3.16 µM): > 10 µM | IC50 (second compound 10 µM): > 10 µM | viability, T/C [1]: 98.6% | viability, T/C [2]: 106% | viability, T/C [3]: 103% | viability, T/C [4]: 109% | viability, T/C [5]: 102% | viability, T/C [6]: 89.3% | viability, T/C [7]: 103% | viability, T/C [8]: 107% | viability, T/C [9]: 102% | viability, T/C [10]: 98.7% | viability, T/C [11]: 101% | viability, T/C [12]: 95% | viability, T/C [13]: 106% | viability, T/C [14]: 93% | viability, T/C [15]: 102% | viability, T/C [16]: 100% | viability, T/C [17]: 99.9% | viability, T/C [18]: 96.9% | viability, T/C [19]: 102% | viability, T/C [20]: 99.8% | viability, T/C [21]: 105% | viability, T/C [22]: 105% | viability, T/C [23]: 99.7% | viability, T/C [24]: 93.1% | viability, T/C [25]: 99.4% | viability, T/C [26]: 98% | viability, T/C [27]: 106% | viability, T/C [28]: 93.8% | viability, T/C [29]: 103% | viability, T/C [30]: 96.8% | viability, T/C [31]: 93.9% | viability, T/C [32]: 106% | viability, T/C [33]: 97.4% | viability, T/C [34]: 102% | viability, T/C [35]: 101% | viability, T/C [36]: 90.5%

CC1COCCN1c1cc(C2(O)CC3CCC(C2)O3)c2cnn(-c3ccn[nH]3)c2n1 (stereo not drawn) + Nc1ccc(C#CCN(C(=O)Cc2ncc(C(F)(F)F)cc2C(F)(F)F)c2ccc(F)cc2)nn1
IC50 (second compound 0.0316 µM): 0.273 µM | IC50 (second compound 0.1 µM): 0.251 µM | IC50 (second compound 0.316 µM): 0.269 µM | IC50 (second compound 1 µM): 0.263 µM | IC50 (second compound 3.16 µM): 0.232 µM | IC50 (second compound 10 µM): 0.187 µM | viability, T/C [1]: 84.1% | viability, T/C [2]: 72% | viability, T/C [3]: 48.2% | viability, T/C [4]: 7.65% | viability, T/C [5]: 3.72% | viability, T/C [6]: 2.1% | viability, T/C [7]: 83.8% | viability, T/C [8]: 70.5% | viability, T/C [9]: 46.3% | viability, T/C [10]: 7.55% | viability, T/C [11]: 3.33% | viability, T/C [12]: 2.36% | viability, T/C [13]: 83.9% | viability, T/C [14]: 71.3% | viability, T/C [15]: 47.9% | viability, T/C [16]: 7.06% | viability, T/C [17]: 3.37% | viability, T/C [18]: 2.33% | viability, T/C [19]: 78.9% | viability, T/C [20]: 69.5% | viability, T/C [21]: 46.8% | viability, T/C [22]: 6.97% | viability, T/C [23]: 3.6% | viability, T/C [24]: 2.11% | viability, T/C [25]: 81.1% | viability, T/C [26]: 70.4% | viability, T/C [27]: 43.1% | viability, T/C [28]: 7.77% | viability, T/C [29]: 3.26% | viability, T/C [30]: 2.52% | viability, T/C [31]: 83.4% | viability, T/C [32]: 66.9% | viability, T/C [33]: 36.4% | viability, T/C [34]: 6.28% | viability, T/C [35]: 3.88% | viability, T/C [36]: 2.51%

COc1cc2cc(C(=O)CCC(=O)O)sc2cc1OC + Nc1ccc(C#CCN(C(=O)Cc2ncc(C(F)(F)F)cc2C(F)(F)F)c2ccc(F)cc2)nn1
IC50 (second compound 0.0316 µM): > 10 µM | IC50 (second compound 0.1 µM): > 10 µM | IC50 (second compound 0.316 µM): > 10 µM | IC50 (second compound 1 µM): > 10 µM | IC50 (second compound 3.16 µM): > 10 µM | IC50 (second compound 10 µM): > 10 µM | viability, T/C [1]: 90.4% | viability, T/C [2]: 108% | viability, T/C [3]: 89.8% | viability, T/C [4]: 107% | viability, T/C [5]: 106% | viability, T/C [6]: 119% | viability, T/C [7]: 106% | viability, T/C [8]: 113% | viability, T/C [9]: 101% | viability, T/C [10]: 106% | viability, T/C [11]: 103% | viability, T/C [12]: 97.4% | viability, T/C [13]: 105% | viability, T/C [14]: 109% | viability, T/C [15]: 96.8% | viability, T/C [16]: 117% | viability, T/C [17]: 95.4% | viability, T/C [18]: 101% | viability, T/C [19]: 105% | viability, T/C [20]: 106% | viability, T/C [21]: 94.8% | viability, T/C [22]: 97.9% | viability, T/C [23]: 100% | viability, T/C [24]: 105% | viability, T/C [25]: 97% | viability, T/C [26]: 107% | viability, T/C [27]: 103% | viability, T/C [28]: 104% | viability, T/C [29]: 94.9% | viability, T/C [30]: 99.8% | viability, T/C [31]: 96.9% | viability, T/C [32]: 105% | viability, T/C [33]: 108% | viability, T/C [34]: 98.2% | viability, T/C [35]: 99.9% | viability, T/C [36]: 98.3%

O=C(Nc1ccc(O)c(NS(=O)(=O)c2ccc(F)cc2)c1)c1ccc(-c2ccccc2)cc1 + Nc1ccc(C#CCN(C(=O)Cc2ncc(C(F)(F)F)cc2C(F)(F)F)c2ccc(F)cc2)nn1
IC50 (second compound 0.0316 µM): > 10 µM | IC50 (second compound 0.1 µM): > 10 µM | IC50 (second compound 0.316 µM): > 10 µM | IC50 (second compound 1 µM): > 10 µM | IC50 (second compound 3.16 µM): > 10 µM | IC50 (second compound 10 µM): > 10 µM | viability, T/C [1]: 102% | viability, T/C [2]: 106% | viability, T/C [3]: 89.5% | viability, T/C [4]: 105% | viability, T/C [5]: 106% | viability, T/C [6]: 110% | viability, T/C [7]: 105% | viability, T/C [8]: 109% | viability, T/C [9]: 112% | viability, T/C [10]: 106% | viability, T/C [11]: 109% | viability, T/C [12]: 99% | viability, T/C [13]: 111% | viability, T/C [14]: 103% | viability, T/C [15]: 104% | viability, T/C [16]: 108% | viability, T/C [17]: 116% | viability, T/C [18]: 98.2% | viability, T/C [19]: 115% | viability, T/C [20]: 109% | viability, T/C [21]: 95.8% | viability, T/C [22]: 106% | viability, T/C [23]: 113% | viability, T/C [24]: 109% | viability, T/C [25]: 107% | viability, T/C [26]: 103% | viability, T/C [27]: 103% | viability, T/C [28]: 101% | viability, T/C [29]: 97.1% | viability, T/C [30]: 106% | viability, T/C [31]: 102% | viability, T/C [32]: 96.6% | viability, T/C [33]: 103% | viability, T/C [34]: 93.7% | viability, T/C [35]: 95.1% | viability, T/C [36]: 96.3%
